Reference: US9689021B2, “Method for measuring beta-lactam antibiotics” (priority 2011, dated 2017)
Read-outs that look alike come from different tables or passages of the source.

Legend:
[1] = molecular target: class C beta-lactamase of Enterobacter cloacae P99 (Enterobacter cloacae, UniProt P05364); conditions: cited from earlier work
[2] = test system: class C beta-lactamase of Enterobacter cloacae 908R; conditions: cited from earlier work
[3] = molecular target: class C beta-lactamase of Citrobacter freundii (Citrobacter freundii, UniProt P05193); conditions: cited from earlier work
[4] = molecular target: class C beta-lactamase of Escherichia coli K12 (Escherichia coli, UniProt P00811); conditions: cited from earlier work
[5] = molecular target: class C beta-lactamase of Serratia marcescens (Serratia marcescens, UniProt P18539); conditions: cited from earlier work; for kcat: Serratia marcescens
[6] = molecular target: class C beta-lactamase of Pseudomonas aeruginosa (Pseudomonas aeruginosa, UniProt P24735); conditions: cited from earlier work; for kcat: Pseudomonas aeruginosa
[7] = molecular target: P99 beta-lactamase (Enterobacter cloacae, UniProt P05364); format: biochemical
Chain of P99 beta-lactamase (P05364 21-381): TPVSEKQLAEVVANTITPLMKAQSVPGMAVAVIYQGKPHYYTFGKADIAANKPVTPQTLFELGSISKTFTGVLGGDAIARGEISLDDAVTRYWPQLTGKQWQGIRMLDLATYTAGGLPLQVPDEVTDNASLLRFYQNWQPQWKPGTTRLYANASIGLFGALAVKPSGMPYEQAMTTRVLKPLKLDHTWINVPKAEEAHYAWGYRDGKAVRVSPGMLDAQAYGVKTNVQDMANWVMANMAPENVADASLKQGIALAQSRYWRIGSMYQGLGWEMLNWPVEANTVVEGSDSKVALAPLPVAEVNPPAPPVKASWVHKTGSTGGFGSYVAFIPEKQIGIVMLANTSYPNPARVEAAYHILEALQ

Chain of class C beta-lactamase of Pseudomonas aeruginosa (P24735 27-397): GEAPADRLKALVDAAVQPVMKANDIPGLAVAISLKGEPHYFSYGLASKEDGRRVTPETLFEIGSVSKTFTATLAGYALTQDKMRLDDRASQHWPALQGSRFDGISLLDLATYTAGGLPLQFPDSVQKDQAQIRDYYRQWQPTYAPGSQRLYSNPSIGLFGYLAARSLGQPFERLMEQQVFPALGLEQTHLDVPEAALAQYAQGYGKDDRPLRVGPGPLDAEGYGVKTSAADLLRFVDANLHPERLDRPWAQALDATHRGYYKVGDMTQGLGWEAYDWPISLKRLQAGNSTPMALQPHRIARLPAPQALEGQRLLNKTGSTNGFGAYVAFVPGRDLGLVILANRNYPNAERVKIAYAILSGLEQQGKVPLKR
Chain of class C beta-lactamase of Citrobacter freundii (P05193 21-381): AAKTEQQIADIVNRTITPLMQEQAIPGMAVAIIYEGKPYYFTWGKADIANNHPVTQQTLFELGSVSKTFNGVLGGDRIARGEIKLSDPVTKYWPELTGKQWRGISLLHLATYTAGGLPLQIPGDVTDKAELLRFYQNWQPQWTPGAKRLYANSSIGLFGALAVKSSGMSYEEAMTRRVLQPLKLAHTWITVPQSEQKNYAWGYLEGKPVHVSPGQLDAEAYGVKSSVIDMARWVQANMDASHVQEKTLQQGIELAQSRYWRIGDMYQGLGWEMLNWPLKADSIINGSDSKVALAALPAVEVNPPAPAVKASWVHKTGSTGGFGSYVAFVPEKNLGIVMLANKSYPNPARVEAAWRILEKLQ
Chain of class C beta-lactamase of Enterobacter cloacae P99 (P05364 21-381): as the sequence (P05364 21-381) above
Chain of class C beta-lactamase of Serratia marcescens (P18539 22-376): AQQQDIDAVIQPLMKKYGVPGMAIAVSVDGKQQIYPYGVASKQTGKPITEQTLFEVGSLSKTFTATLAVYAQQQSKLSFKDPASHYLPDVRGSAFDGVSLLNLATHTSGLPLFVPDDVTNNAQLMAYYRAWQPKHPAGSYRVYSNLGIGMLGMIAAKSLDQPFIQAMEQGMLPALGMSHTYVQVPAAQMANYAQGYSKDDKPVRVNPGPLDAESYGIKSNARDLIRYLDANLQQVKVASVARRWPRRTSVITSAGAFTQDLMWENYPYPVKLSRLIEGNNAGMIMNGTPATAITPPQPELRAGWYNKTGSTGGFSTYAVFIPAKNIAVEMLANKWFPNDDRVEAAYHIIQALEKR
Chain of class C beta-lactamase of Escherichia coli K12 (P00811 20-377): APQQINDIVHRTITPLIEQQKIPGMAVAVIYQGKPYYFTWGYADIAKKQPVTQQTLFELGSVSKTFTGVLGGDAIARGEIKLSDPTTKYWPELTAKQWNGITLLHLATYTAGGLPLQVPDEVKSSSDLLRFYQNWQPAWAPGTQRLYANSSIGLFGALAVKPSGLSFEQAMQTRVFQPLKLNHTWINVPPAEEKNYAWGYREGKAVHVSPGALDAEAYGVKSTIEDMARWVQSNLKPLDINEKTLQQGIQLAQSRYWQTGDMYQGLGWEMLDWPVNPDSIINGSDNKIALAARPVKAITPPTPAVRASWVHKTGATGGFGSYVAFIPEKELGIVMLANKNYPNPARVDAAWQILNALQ

**Q.** For `O=C(Cc1cccs1)N[C@@H]1C(=O)N2C(C(=O)O)=C(/C=C/c3ccc([N+](=O)[O-])cc3[N+](=O)[O-])CS[C@H]12` [Nitrocefin], which kcat [1] is on record?
**A.** 780 s⁻¹

**Q.** And the Km ([1]; read-out: Km)?
**A.** 25 µM

**Q.** What about the Km [2] of the same compound?
**A.** 23 µM

**Q.** And the kcat [2]?
**A.** 780 s⁻¹

**Q.** What about the kcat [3] of the same compound?
**A.** 330 s⁻¹

**Q.** What about the kcat [4] of the same compound?
**A.** 490 s⁻¹

**Q.** And the kcat [5]?
**A.** 1240 s⁻¹

**Q.** What about the Km [5] of the same compound?
**A.** 40 µM

**Q.** And the kcat [6]?
**A.** 742 s⁻¹

**Q.** And the Km [6]?
**A.** 27 µM

**Q.** With `O=C(Cc1cccs1)N[C@@H]1C(=O)N2C(C(=O)[O-])=C(C[n+]3ccccc3)CS[C@H]12` [Cephaloridine] as the compound, how does the kcat [1] read?
**A.** 700 s⁻¹

**Q.** And the Km [2]?
**A.** 75 µM

**Q.** And the kcat [2]?
**A.** 600 s⁻¹

**Q.** What about the kcat [3] of the same compound?
**A.** 700 s⁻¹

**Q.** And the kcat [4]?
**A.** 130 s⁻¹

**Q.** And the kcat [5]?
**A.** 1100 s⁻¹

**Q.** What about the Km [5] of the same compound?
**A.** 275 µM

**Q.** And the kcat [6]?
**A.** 110 s⁻¹

**Q.** What about the Km [6] of the same compound?
**A.** 20 µM

**Q.** Which results are given for ampicillin-fluorescein [Ampi-flu]?
**A.** v0 (standard curve) ([7]; 0.1 mg/L): 0.2638 ΔAbs482/min; v0/v0max (standard curve) ([7]; 0.1 mg/L): 98%; v0 (standard curve) ([7]; 0.5 mg/L): 0.2336 ΔAbs482/min; v0/v0max (standard curve) ([7]; 0.5 mg/L): 87%; v0 (standard curve) ([7]; 1.5 mg/L): 0.169 ΔAbs482/min; v0/v0max (standard curve) ([7]; 1.5 mg/L): 63%; v0 (standard curve) ([7]; 3 mg/L): 0.1064 ΔAbs482/min; v0/v0max (standard curve) ([7]; 3 mg/L): 39%; v0 (standard curve) ([7]; 5 mg/L): 0.063 ΔAbs482/min; v0/v0max (standard curve) ([7]; 5 mg/L): 23%; v0 (standard curve) ([7]; 7.5 mg/L): 0.0389 ΔAbs482/min; v0/v0max (standard curve) ([7]; 7.5 mg/L): 14%; v0 (standard curve) ([7]; 10 mg/L): 0.025 ΔAbs482/min; v0/v0max (standard curve) ([7]; 10 mg/L): 9%; v0/v0max due to ampi-flu ([7]; sample 3, calculated from equation 3): 59%

**Q.** For `CC1(C)S[C@@H]2[C@H](NC(=O)Cc3ccccc3)C(=O)N2[C@H]1C(=O)O` [Benzylpenicillin], which Km [1] is on record?
**A.** 0.6 µM

**Q.** What about the kcat [1] of the same compound?
**A.** 14 s⁻¹

**Q.** And the Km [2]?
**A.** 0.5 µM

**Q.** And the kcat [2]?
**A.** 18 s⁻¹

**Q.** And the Km [3]?
**A.** 0.4 µM

**Q.** What about the kcat [3] of the same compound?
**A.** 31 s⁻¹

**Q.** What about the kcat [4] of the same compound?
**A.** 45 s⁻¹

**Q.** What about the kcat [5] of the same compound?
**A.** 75 s⁻¹

**Q.** And the Km [5]?
**A.** 1.7 µM

**Q.** What about the kcat [6] of the same compound?
**A.** 76 s⁻¹

**Q.** What about the Km [6] of the same compound?
**A.** 1.7 µM
